Laboratory results taken from PubChem BioAssay AID248 (DTP/NCI, 2004).
Inconclusive results and toxic doses are left out.

Tested on: L1210 leukemia ip in BDF1 mice, survival T/C
Assay: NCI In Vivo Anticancer Drug Screen. Data for tumor model L1210 Leukemia (intraperitoneal) in B6D2F1 (BDF1) mice
Conditions: endpoint: mean survival time, higher = longer survival
In short: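 Tumor was transplanted into mice, which were then dosed with test compound or vehicle alone. Survival was recorded for each group, and the treated figure was expressed relative to the control figure.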

[1] = dose: 100.0 mg/kg/injection, schedule: Q01DX009 (ip), vehicle: Klucel (hydroxypropylcellulose) (HPC)
[2] = dose: 100.0 mg/kg/injection, schedule: Q04DX003 (ip), vehicle: Klucel (hydroxypropylcellulose) (HPC)
[3] = dose: 200.0 mg/kg/injection, schedule: Q01DX009 (ip), vehicle: Klucel (hydroxypropylcellulose) (HPC)
[4] = dose: 200.0 mg/kg/injection, schedule: Q04DX003 (ip), vehicle: Klucel (hydroxypropylcellulose) (HPC)
[5] = dose: 400.0 mg/kg/injection, schedule: Q01DX009 (ip), vehicle: Klucel (hydroxypropylcellulose) (HPC)
[6] = dose: 400.0 mg/kg/injection, schedule: Q04DX003 (ip), vehicle: Klucel (hydroxypropylcellulose) (HPC)
[7] = dose: 100.0 mg/kg/injection, schedule: Q01DX001 (ip), vehicle: carboxymethylcellulose (CMC)
[8] = dose: 200.0 mg/kg/injection, schedule: Q01DX001 (ip), vehicle: carboxymethylcellulose (CMC)
[9] = dose: 400.0 mg/kg/injection, schedule: Q01DX001 (ip), vehicle: carboxymethylcellulose (CMC)
[10] = dose: 100.0 mg/kg/injection, schedule: Q04DX002 (ip), vehicle: saline
[11] = dose: 200.0 mg/kg/injection, schedule: Q04DX002 (ip), vehicle: saline
[12] = dose: 50.0 mg/kg/injection, schedule: Q01DX001 (ip), vehicle: carboxymethylcellulose (CMC)
[13] = dose: 100.0 mg/kg/injection, schedule: Q04DX002 (ip), vehicle: Klucel (hydroxypropylcellulose) (HPC)
[14] = dose: 200.0 mg/kg/injection, schedule: Q04DX002 (ip), vehicle: Klucel (hydroxypropylcellulose) (HPC)
[15] = dose: 400.0 mg/kg/injection, schedule: Q04DX002 (ip), vehicle: Klucel (hydroxypropylcellulose) (HPC)
[16] = dose: 100.0 mg/kg/injection, schedule: Q01DX009 (ip), vehicle: saline with Tween-80
[17] = dose: 100.0 mg/kg/injection, schedule: Q04DX003 (ip), vehicle: saline with Tween-80
[18] = dose: 200.0 mg/kg/injection, schedule: Q01DX009 (ip), vehicle: saline with Tween-80
[19] = dose: 200.0 mg/kg/injection, schedule: Q04DX003 (ip), vehicle: saline with Tween-80
[20] = dose: 400.0 mg/kg/injection, schedule: Q01DX009 (ip), vehicle: saline with Tween-80
[21] = dose: 400.0 mg/kg/injection, schedule: Q04DX003 (ip), vehicle: saline with Tween-80
[22] = dose: 25.0 mg/kg/injection, schedule: Q01DX009 (ip), vehicle: saline with Tween-80
[23] = dose: 50.0 mg/kg/injection, schedule: Q01DX009 (ip), vehicle: saline with Tween-80
[24] = dose: 100.0 mg/kg/injection, schedule: Q01DX001 (ip), vehicle: saline
[25] = dose: 200.0 mg/kg/injection, schedule: Q01DX001 (ip), vehicle: saline
[26] = dose: 400.0 mg/kg/injection, schedule: Q01DX001 (ip), vehicle: saline

Structure (SMILES): CN(C)c1ccc(P(c2ccc(N(C)C)cc2)c2ccc(N(C)C)cc2)cc1
- T/C [1]: 91 % of control
- T/C [2]: 95 % of control
- T/C [3]: 91 % of control
- T/C [4]: 95 % of control
- T/C [5]: 87 % of control
- T/C [6]: 95 % of control

Structure (SMILES): Nc1cc2c(cc1I)-c1ccccc1C2=O
- T/C [7]: 94 % of control
- T/C [8]: 89 % of control
- T/C [9]: 97 % of control

Structure (SMILES): CC(=O)OC1C(C[N+](=O)[O-])OC(n2cnc3c(NC(=O)c4ccccc4)ncnc32)C(OC(C)=O)C1OC(C)=O (stereo not drawn)
- T/C (dose: 50.0 mg/kg/injection, schedule: Q04DX002 (ip), vehicle: saline): 102 % of control
- T/C [10]: 100 % of control
- T/C [11]: 121 % of control

Structure (SMILES): CCC1OC(C)CC(C)(C)O1 (stereo not drawn)
- T/C (dose: 50.0 mg/kg/injection, schedule: Q01DX009 (ip), vehicle: saline): 96 % of control
- T/C (dose: 100.0 mg/kg/injection, schedule: Q01DX009 (ip), vehicle: saline): 101 % of control
- T/C (dose: 100.0 mg/kg/injection, schedule: Q04DX002 (ip), vehicle: saline with Tween-80): 93 % of control
- T/C (dose: 100.0 mg/kg/injection, schedule: Q04DX003 (ip), vehicle: acetone): 118 % of control
- T/C (dose: 200.0 mg/kg/injection, schedule: Q01DX009 (ip), vehicle: saline): 96 % of control
- T/C (dose: 200.0 mg/kg/injection, schedule: Q04DX002 (ip), vehicle: saline with Tween-80): 97 % of control
- T/C (dose: 200.0 mg/kg/injection, schedule: Q04DX003 (ip), vehicle: acetone): 120 % of control
- T/C (dose: 400.0 mg/kg/injection, schedule: Q04DX002 (ip), vehicle: saline with Tween-80): 101 % of control
- T/C (dose: 400.0 mg/kg/injection, schedule: Q04DX003 (ip), vehicle: acetone): 101 % of control

Structure (SMILES): NC(=O)N/N=C1\CC2CC1C1CCCC21 (stereo not drawn)
- T/C (dose: 100.0 mg/kg/injection, schedule: Q04DX003 (ip), vehicle: other): 104 % of control
- T/C (dose: 200.0 mg/kg/injection, schedule: Q04DX003 (ip), vehicle: other): 98 % of control
- T/C (dose: 400.0 mg/kg/injection, schedule: Q04DX003 (ip), vehicle: other): 94 % of control

Structure (SMILES): CC(=O)OCC1OC(n2c(O)c(/C=C3\C=Nc4ccccc43)sc2=S)C(OC(C)=O)C(OC(C)=O)C1OC(C)=O (stereo not drawn)
- T/C (dose: 12.5 mg/kg/injection, schedule: Q01DX005 (ip), vehicle: other): 94 % of control
- T/C (dose: 25.0 mg/kg/injection, schedule: Q01DX005 (ip), vehicle: other): 91 % of control
- T/C (dose: 50.0 mg/kg/injection, schedule: Q01DX005 (ip), vehicle: other): 92 % of control
- T/C (dose: 100.0 mg/kg/injection, schedule: Q01DX005 (ip), vehicle: other): 111 % of control
- T/C (dose: 200.0 mg/kg/injection, schedule: Q01DX005 (ip), vehicle: other): 94 % of control

Structure (SMILES): COc1ccc(C(=O)CC(=O)CC(=O)c2ccccc2)cc1
- T/C [1]: 117 % of control
- T/C [2]: 107 % of control
- T/C [3]: 102 % of control
- T/C [4]: 96 % of control
- T/C [5]: 96 % of control
- T/C [6]: 105 % of control

Structure (SMILES): COC(=O)c1c(C)cc(C)c(C(C)=O)c1O
- T/C [12]: 96 % of control
- T/C [7]: 102 % of control
- T/C [8]: 104 % of control
- T/C [9]: 107 % of control

Structure (SMILES): ClC12c3ccccc3C(c3ccccc31)C1(Cl)c3ccccc3C2c2ccccc21
- T/C [13]: 102 % of control
- T/C [14]: 109 % of control
- T/C [15]: 106 % of control

Structure (SMILES): Cc1ccc(S(=O)(=O)C2CCCCC2Cl)cc1 (stereo not drawn)
- T/C [7]: 109 % of control
- T/C [8]: 102 % of control
- T/C [9]: 98 % of control

Structure (SMILES): COC1CC(N=[N+]=[N-])C(OS(C)(=O)=O)C(C)O1 (stereo not drawn)
- T/C [7]: 98 % of control
- T/C [16]: 109 % of control
- T/C [17]: 107 % of control
- T/C [8]: 106 % of control
- T/C [18]: 94 % of control
- T/C [19]: 107 % of control
- T/C [9]: 98 % of control
- T/C [20]: 109 % of control
- T/C [21]: 108 % of control

Structure (SMILES): NC(=S)N/N=C/c1ccc(-c2ccccc2)cc1
- T/C [22]: 103 % of control
- T/C [23]: 113 % of control
- T/C [7]: 97 % of control
- T/C [16]: 100 % of control
- T/C [8]: 103 % of control
- T/C [9]: 101 % of control

Structure (SMILES): Cc1ccc(S(=O)(=O)NC(=O)N(CCCl)N=O)cc1
- T/C (dose: 10.0 mg/kg/injection, schedule: Q01DX001 (ip), vehicle: other): 113 % of control
- T/C (dose: 40.0 mg/kg/injection, schedule: Q01DX001 (ip), vehicle: other): 216 % of control
- T/C (dose: 62.0 mg/kg/injection, schedule: Q01DX001 (ip), vehicle: other): 220 % of control
- T/C (dose: 93.0 mg/kg/injection, schedule: Q01DX001 (ip), vehicle: other): 307 % of control
- T/C (dose: 187.0 mg/kg/injection, schedule: Q01DX001 (ip), vehicle: other): 168 % of control

Structure (SMILES): CCCC(O)CC(C)O (stereo not drawn)
- T/C [24]: 97 % of control
- T/C [25]: 100 % of control
- T/C [26]: 95 % of control

Structure (SMILES): Fc1c(F)c(F)c(/C=N/Nc2nnc(N/N=C/c3c(F)c(F)c(F)c(F)c3F)c3ccccc23)c(F)c1F
- T/C [12]: 93 % of control
- T/C [7]: 95 % of control
- T/C [8]: 98 % of control
- T/C [9]: 95 % of control

Structure (SMILES): COC(=O)c1ccc(S(=O)(=O)O)cc1[N+](=O)[O-]
- T/C [10]: 100 % of control
- T/C [11]: 88 % of control
- T/C (dose: 400.0 mg/kg/injection, schedule: Q04DX002 (ip), vehicle: saline): 96 % of control

Structure (SMILES): O=NN(CCCl)C(=O)NC(C(=O)O)C1CCCCC1 (stereo not drawn)
- T/C (dose: 8.0 mg/kg/injection, schedule: Q01DX001 (ip), vehicle: saline with Tween-80): 118 % of control
- T/C (dose: 12.0 mg/kg/injection, schedule: Q01DX001 (ip), vehicle: saline with Tween-80): 171 % of control
- T/C (dose: 26.0 mg/kg/injection, schedule: Q01DX001 (ip), vehicle: saline with Tween-80): 153 % of control
- T/C (dose: 40.0 mg/kg/injection, schedule: Q01DX001 (ip), vehicle: saline with Tween-80): 253 % of control
- T/C (dose: 60.0 mg/kg/injection, schedule: Q01DX001 (ip), vehicle: saline with Tween-80): 412 % of control
- T/C (dose: 90.0 mg/kg/injection, schedule: Q01DX001 (ip), vehicle: saline with Tween-80): 482 % of control
- T/C (dose: 133.0 mg/kg/injection, schedule: Q01DX001 (ip), vehicle: saline with Tween-80): 266 % of control

Structure (SMILES): C=CCc1ccc(OC(=O)Nc2ccc(Cl)cc2)c(OC)c1
- T/C [13]: 115 % of control
- T/C [14]: 107 % of control
- T/C [15]: 100 % of control

Structure (SMILES): CC(CCCCC1NC(=O)NC1C)C(=O)O (stereo not drawn)
- T/C [24]: 95 % of control
- T/C [25]: 90 % of control
- T/C [26]: 90 % of control

Structure (SMILES): COC1OC(COC(=O)c2ccccc2)C(OC(=O)Nc2ccccc2)C1O (stereo not drawn)
- T/C [16]: 90 % of control
- T/C [17]: 93 % of control
- T/C [18]: 100 % of control
- T/C [19]: 98 % of control
- T/C [20]: 95 % of control
- T/C [21]: 92 % of control

Structure (SMILES): CC(C)(CCCC(C)(C)[N+](=O)[O-])[N+](=O)[O-]
- T/C (dose: 100.0 mg/kg/injection, schedule: Q01DX001 (ip), vehicle: saline with Tween-80): 101 % of control
- T/C (dose: 200.0 mg/kg/injection, schedule: Q01DX001 (ip), vehicle: saline with Tween-80): 94 % of control
- T/C (dose: 400.0 mg/kg/injection, schedule: Q01DX001 (ip), vehicle: saline with Tween-80): 101 % of control

Structure (SMILES): O=Cc1ccc2cc(Cl)ccc2n1
- T/C (dose: 100.0 mg/kg/injection, schedule: Q01DX001 (ip), vehicle: other): 93 % of control
- T/C (dose: 200.0 mg/kg/injection, schedule: Q01DX001 (ip), vehicle: other): 110 % of control
- T/C (dose: 400.0 mg/kg/injection, schedule: Q01DX001 (ip), vehicle: other): 106 % of control

Structure (SMILES): Cc1ccc2c(N=Nc3ccc(N(C)C)cc3)cccc2n1
- T/C [22]: 93 % of control
- T/C [23]: 93 % of control
- T/C [16]: 98 % of control
